This is an account of results in patent US20240327320A1, “NOVEL ROUTES OF CHEMICAL SYNTHESIS OF 20S(OH)D3, 20S,25(OH)2D3, 20S,23S(OH)2D3, AND 20S,23R(OH)2D3 AND THEIR MODIFICATION OF THE IMMUNE ACTIVITY OF PBMCS” (United State Government as represen ted by the Department …, priority 2023, published 2024).

The subject of the assay is Human epidermal keratinocytes (HEKn). Nature of the assay: Gene expression of differentiation markers, quantitative RT-PCR. The note with it: 8 h, FIG. 7A, compared to 20S(OH)D3. The assay is classed as cell-based. How it is done:
RNA isolation and reverse transcription were performed as described previously (Slominski A T, et. al., (2021) Sci Rep 11(1) 8002). Quantitative RT-PCR was carried out using Sybr green Master Mix (Thermo Scientific, Waltham, MA), in triplicates as previously described (Slominski A T, et. al., (2021) Sci Rep 11(1) 8002; Janjetovic Z, et. al., (2014) J Pineal Res 57(1) 90-102). Human epidermal keratinocytes (HEKn) isolated from foreskin of white neonates were cultured until the third passage before treatment as described in the literature (Chaiprasongsuk A, et. al., (2019) Redox Biol 24 101206; Janjetovic Z, et. al., (2009) PloS one 4(6) e5988). Cells were treated with vitamin D3 derivatives for 8 h or 24 h and harvested for RNA isolation. Approximately 300 ng of RNA was used for cDNA synthesis and an equal amount of cDNA was used for PCR reactions. Cyclophilin B or GAPDH was used as an internal control. Primers sequences are listed in (Chaiprasongsuk A, et. al., (2020) Free Radic Biol Med 155 87-9845, Slominski A T, et. al., (2017) Sci Rep 7(1) 11434). Reactions were done in triplicate.
Referring to FIG. 7A-D, stimulation of keratinocyte differentiation by 20S(OH)D3, 20S,25(OH)2D3, 20S,23S(OH)2D3 and 20S,23R(OH)2D3 in comparison to 1α,25(OH)2D3. […]

As for `C=C1CC[C@H](O)C/C1=C/C=C1\CCC[C@@]2(C)[C@H]1CC[C@@H]2[C@@](C)(O)CCCC(C)(C)O` [20S,25(OH)2D3, (20S)-20,25-Dihydroxyvitamin D3], the “gene expression of involucrin, CK10, and filaggrin” value was “slightly better at inducing gene expression of involucrin, CK10, and filaggrin”.
